≈ marks a conversion by molar mass, not a printed value. Read-outs that look alike come from different tables or passages of the source.
What was measured:
[1] = system: Haemophilus influenzae (n = 14); assay: MIC broth microdilution at IHMA Europe; assay type: cell-based, H. influenzae; conditions: for MIC: Haemophilus influenzae, read-out: MIC
E. faecium (n = 13) = assay: MIC broth microdilution at IHMA Europe; assay type: cell-based; conditions: for MIC: Enterococcus faecium, read-out: MIC
S. pneumoniae ATCC 49619 = system: S. pneumoniae ATCC 49619; design: method as in earlier work; conditions: QC range for S. pneumoniae ATCC 49619, ref CLSI; cited from earlier work
S. pneumoniae (n = 12) = assay: MIC broth microdilution at IHMA Europe; assay type: cell-based; conditions: for MIC: Streptococcus pneumoniae, read-out: MIC
H. influenzae ATCC 49247 = system: H. influenzae ATCC 49247; design: method as in earlier work; conditions: QC range for H. influenzae ATCC 49247, ref CLSI; cited from earlier work
E. faecalis ATCC 29212 = system: E. faecalis ATCC 29212; design: method as in earlier work; conditions: QC range for E. faecalis ATCC 29212, ref CLSI; cited from earlier work

- MIC ([1]; H. influenzae IHMA N° 1227715): 16 µg/mL (≈ 45.8 µM)
- MIC ([1]; H. influenzae IHMA N° 1241620): 4 µg/mL (≈ 11.4 µM)
- MIC ([1]; H. influenzae IHMA N° 1244149): 16 µg/mL (≈ 45.8 µM)
- MIC ([1]; H. influenzae IHMA N° 1249803): 2 µg/mL (≈ 5.72 µM)
- MIC ([1]; H. influenzae IHMA N° 1254355): 2 µg/mL (≈ 5.72 µM)
- MIC ([1]; H. influenzae IHMA N° 1258580): 16 µg/mL (≈ 45.8 µM)
- MIC ([1]; H. influenzae IHMA N° 1262734): 8 µg/mL (≈ 22.9 µM)
- MIC ([1]; H. influenzae IHMA N° 1272723): 16 µg/mL (≈ 45.8 µM)
- MIC ([1]; H. influenzae IHMA N° 1286846): 8 µg/mL (≈ 22.9 µM)
- MIC ([1]; H. influenzae IHMA N° 1337530): 32 µg/mL (≈ 91.6 µM)
- MIC ([1]; H. influenzae IHMA N° 1440085): 8 µg/mL (≈ 22.9 µM)
- MIC ([1]; H. influenzae IHMA N° 1479509): 8 µg/mL (≈ 22.9 µM)
- MIC ([1]; H. influenzae IHMA N° 1952952): 4 µg/mL (≈ 11.4 µM)
- MIC ([1]; H. influenzae IHMA N° 2047461): 32 µg/mL (≈ 91.6 µM)
- Cumulative % at MIC ([1]; MIC 2 µg/mL): 14.3%
- No. of isolates at MIC ([1]; MIC 2 µg/mL): 2
- Cumulative % at MIC ([1]; MIC […] µg/mL): 85.7%
- No. of isolates at MIC ([1]; MIC […] µg/mL): 4
- Cumulative % at MIC ([1]; MIC 32 µg/mL): 100.0%
- No. of isolates at MIC ([1]; MIC 32 µg/mL): 2
- MIC (E. faecium (n = 13); E. faecium IHMA N° 1764866): > 32 µg/mL
- MIC (E. faecium (n = 13); E. faecium IHMA N° 1765436): > 32 µg/mL
- MIC (E. faecium (n = 13); E. faecium IHMA N° 1765746): > 32 µg/mL
- MIC (E. faecium (n = 13); E. faecium IHMA N° 1893573): > 32 µg/mL
- MIC (E. faecium (n = 13); E. faecium IHMA N° 1893846): > 32 µg/mL
- MIC (E. faecium (n = 13); E. faecium IHMA N° 1893942): > 32 µg/mL
- MIC (E. faecium (n = 13); E. faecium IHMA N° 1894055): > 32 µg/mL
- MIC (E. faecium (n = 13); E. faecium IHMA N° 1897027): > 32 µg/mL
- MIC (E. faecium (n = 13); E. faecium IHMA N° 1897101): > 32 µg/mL
- MIC (E. faecium (n = 13); E. faecium IHMA N° 1904592): > 32 µg/mL
- MIC (E. faecium (n = 13); E. faecium IHMA N° 2075051): > 32 µg/mL
- MIC (E. faecium (n = 13); E. faecium IHMA N° 2077718): > 32 µg/mL
- MIC (E. faecium (n = 13); E. faecium IHMA N° 2083787): > 32 µg/mL
- Cumulative % at MIC (E. faecium (n = 13); MIC >32 µg/mL): 100.0%
- No. of isolates at MIC (E. faecium (n = 13); MIC >32 µg/mL): 13
- Cumulative % at MIC (S. pneumoniae (n = 12); MIC 0.5 µg/mL): 25.0%
- No. of isolates at MIC (S. pneumoniae (n = 12); MIC 0.5 µg/mL): 2
- Cumulative % at MIC (S. pneumoniae (n = 12); MIC 1 µg/mL): 33.3%
- No. of isolates at MIC (S. pneumoniae (n = 12); MIC 1 µg/mL): 1
- Cumulative % at MIC (S. pneumoniae (n = 12); MIC 2 µg/mL): 66.7%
- No. of isolates at MIC (S. pneumoniae (n = 12); MIC 2 µg/mL): 4
- No. of isolates at MIC (S. pneumoniae (n = 12); MIC […] µg/mL): 2
- Cumulative % at MIC (S. pneumoniae (n = 12); MIC ≤0.03 µg/mL): 8.3%
- No. of isolates at MIC (S. pneumoniae (n = 12); MIC ≤0.03 µg/mL): 1
- MIC (S. pneumoniae (n = 12); S. pneumoniae IHMA N° 1775387): 4 µg/mL (≈ 11.4 µM)
- MIC (S. pneumoniae (n = 12); S. pneumoniae IHMA N° 1776057): 2 µg/mL (≈ 5.72 µM)
- MIC (S. pneumoniae (n = 12); S. pneumoniae IHMA N° 1785617): 8 µg/mL (≈ 22.9 µM)
- MIC (S. pneumoniae (n = 12); S. pneumoniae IHMA N° 1800765): 0.5 µg/mL (≈ 1.43 µM)
- MIC (S. pneumoniae (n = 12); S. pneumoniae IHMA N° 1811259): 2 µg/mL (≈ 5.72 µM)
- MIC (S. pneumoniae (n = 12); S. pneumoniae IHMA N° 1831562): ≤ 0.03 µg/mL
- MIC (S. pneumoniae (n = 12); S. pneumoniae IHMA N° 1902609): 4 µg/mL (≈ 11.4 µM)
- MIC (S. pneumoniae (n = 12); S. pneumoniae IHMA N° 1979675): 2 µg/mL (≈ 5.72 µM)
- MIC (S. pneumoniae (n = 12); S. pneumoniae IHMA N° 1991963): 1 µg/mL (≈ 2.86 µM)
- MIC (S. pneumoniae (n = 12); S. pneumoniae IHMA N° 2057487): 2 µg/mL (≈ 5.72 µM)
- MIC (S. pneumoniae (n = 12); S. pneumoniae IHMA N° 2073087): 8 µg/mL (≈ 22.9 µM)
- MIC (S. pneumoniae (n = 12); S. pneumoniae IHMA N° 2117109): 0.5 µg/mL (≈ 1.43 µM)
Structure (SMILES): CC1(C)S[C@@H]2[C@H](NC(=O)[C@H](N)c3ccccc3)C(=O)N2[C@H]1C(=O)O [Ampicillin, ampicillin]
- MIC, CLSI Range (S. pneumoniae ATCC 49619): 0,06 - 0,25 µg/mL
- MIC, CLSI Range (H. influenzae ATCC 49247): 2 to 8 µg/mL
- MIC, CLSI Range (E. faecalis ATCC 29212): 0,5 - 2 µg/mL

— PMC10041525, “New Dual Inhibitors of Bacterial Topoisomerases with Broad-Spectrum Antibacterial Activity and In Vivo Efficacy against Vancomycin-Intermediate Staphylococcus aureus” (Journal of Medicinal Chemistry, 2023)
